According to article PMC2642990, “The Glycogen-Binding Domain on the AMPK β Subunit Allows the Kinase to Act as a Glycogen Sensor” (Cell Metabolism, 2009):

Target: T1, recombinant AMPK complex (myc-α1:β1:γ1) (Rattus norvegicus, UniProt P80386)
T1 construct: recombinant AMPK complex (myc-α1:β1:γ1) containing full-length (1–270) or truncated β1 subunit lacking the GBD (172–270); made in house; host or cells: human CCL13 cells, co-transfected; isolated by anti-myc immunoprecipitation
Assay: recombinant wild-type AMPK expressed in CCL13 cells, assayed in anti-myc immunoprecipitates
Format: biochemical
Details: 20 mM; Figure 5D
Text: Figure 2 Allosteric Inhibition of AMPK by Different Glycogen Preparations (A) Concentration dependence of inhibition of native rat liver AMPK by preparations of bovine and rat liver glycogen; glycogen concentrations expressed as glucose produced after total hydrolysis. Data were fitted to an IC50 equation (see Supplemental Experimental Procedures), and curves were generated using the estimated best-fit parameters. (B) Concentration dependence of inhibition of native rat liver AMPK by bovine liver glycogen in the presence and absence of 200 μM AMP; curves were generated as in (A). (C) Inhibition by bovine liver glycogen of recombinant AMPK complex (myc-α1:β1:γ1) containing full-length (1–270) or truncated β1 subunit lacking the GBD (172–270). Complexes were expressed in CCL13 cells and purified by immunoprecipitation prior to assay with or without glycogen (200 mM glucose equivalents). Data are means ± SEM (n = 3). ^∗Activity different from control without glycogen by t test (p < 0.05). […] Results are expressed as percentages of the activity in controls without glycogen, and data are mean ± SEM (n = 3). […]

T1 sequence (P80386 whole entry, the tested form may be a part): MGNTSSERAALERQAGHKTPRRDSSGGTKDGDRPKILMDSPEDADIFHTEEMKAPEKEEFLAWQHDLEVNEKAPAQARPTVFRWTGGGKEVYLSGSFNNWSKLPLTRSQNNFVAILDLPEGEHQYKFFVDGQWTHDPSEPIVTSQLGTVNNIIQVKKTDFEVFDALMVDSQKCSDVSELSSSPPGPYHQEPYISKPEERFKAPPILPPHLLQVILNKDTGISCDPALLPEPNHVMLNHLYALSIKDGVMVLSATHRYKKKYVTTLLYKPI
T1 sequence (P54645 13-559 partner limits assumed): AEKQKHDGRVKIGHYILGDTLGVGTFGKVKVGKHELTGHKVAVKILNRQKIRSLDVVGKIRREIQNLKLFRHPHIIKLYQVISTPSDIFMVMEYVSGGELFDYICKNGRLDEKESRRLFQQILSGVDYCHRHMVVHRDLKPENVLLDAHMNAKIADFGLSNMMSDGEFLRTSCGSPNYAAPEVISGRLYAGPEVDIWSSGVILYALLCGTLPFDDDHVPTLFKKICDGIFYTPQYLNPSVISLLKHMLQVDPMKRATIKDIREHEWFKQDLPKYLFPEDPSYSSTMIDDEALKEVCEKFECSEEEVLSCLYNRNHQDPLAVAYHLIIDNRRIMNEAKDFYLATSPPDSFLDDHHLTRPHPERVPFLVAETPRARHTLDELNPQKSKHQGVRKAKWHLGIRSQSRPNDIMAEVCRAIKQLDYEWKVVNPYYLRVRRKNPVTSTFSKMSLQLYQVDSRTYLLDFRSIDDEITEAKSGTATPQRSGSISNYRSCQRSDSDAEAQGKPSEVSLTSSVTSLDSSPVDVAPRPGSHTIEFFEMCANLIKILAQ
T1 sequence (P80385 whole entry partner, the tested form may be a part): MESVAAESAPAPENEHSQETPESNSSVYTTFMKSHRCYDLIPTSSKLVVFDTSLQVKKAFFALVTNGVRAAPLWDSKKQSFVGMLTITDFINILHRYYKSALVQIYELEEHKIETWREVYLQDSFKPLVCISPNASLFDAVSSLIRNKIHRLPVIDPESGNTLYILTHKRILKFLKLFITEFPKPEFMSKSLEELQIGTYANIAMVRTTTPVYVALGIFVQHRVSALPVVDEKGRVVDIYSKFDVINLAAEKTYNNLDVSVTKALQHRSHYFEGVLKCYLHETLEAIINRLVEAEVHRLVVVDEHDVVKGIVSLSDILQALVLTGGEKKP

SMILES: OC[C@H]1O[C@H](OC[C@H]2OC(O)[C@H](O)[C@@H](O)[C@@H]2O)[C@H](O)[C@@H](O)[C@@H]1O (stereo partly shown) [isomaltose]
- inhibition of wild-type recombinant α1β1γ1: inhibited
